Test results: patent US20220339143A1, “TAK-925 FOR USE IN TREATING NARCOLEPSY” (Takeda Pharmaceutical Company Limited, priority 2019, published 2022)
“Also recorded” adds a separate entry of the source. Read-outs that look alike come from different tables or passages of the source.

How the values were obtained:
[1] = tested on: healthy adults, healthy elderly subjects; experiment: Safety/tolerability of a single dose given as 9 hour continuous IV infusion in healthy adults and healthy elderly subjects; format: in vivo, human
Method: (§1) This study investigates (i) the safety and tolerability of Compound A (methyl (2R,3S)-3-((methylsulfonyl)amino)-2-(((cis-4-phenylcyclohexyl)oxy)methyl)piperidine-1-carboxylate) when a single dose given as a 9 hour continuous IV infusion is administered to healthy adults, healthy elderly subjects and patients with narcolepsy type 1 (NT1); (ii) the pharmacokinetics of Compound A when a single dose given as a 9 hour continuous IV infusion is administered to healthy adults, healthy elderly subjects and patients with narcolepsy type 1; and (iii) the pharmacodynamics (PD) effects of Compound A, primarily by evaluation of the sleep latency on MWT when a single dose given as a 9 hour continuous IV infusion is administered to patients with narcolepsy type 1.
Safety and tolerability: adverse events, vital signs, 12-lead ECG and clinical laboratory tests (hematological tests, blood biochemical tests and urinalysis)
To investigate the safety of Compound A, the treatment-emergent adverse events (TEAEs) for healthy subjects and subjects with narcolepsy type 1 (NT1 patients) treated with Compound A were evaluated. A summary of the TEAEs for healthy subjects from cohorts 1 and 2 is shown in FIG. 3, for healthy subjects from cohorts S1, S2, 3, and 4 is shown in FIG. 4, and for NT1 patients is shown in FIG. 5.

[2] = Single dose PK in patients with narcolepsy (Cohorts 5, 6 and 7), plasma; format: in vivo, human; details: for AUC(0-inf) / AUC(0-t) / Cmax / AUC / concentration at 9 h / Tmax / Vd / clearance / concentration at 1 h / concentration at 2 h / concentration at 4 h / concentration at 6 h: human, plasma; for AUC: read-out: AUC24
Method: as §1
In Part 2, NT1 patients received a single dose of Compound A or placebo administered as a continuous IV infusion over a 9-hour period during the day. A 40-minute Maintenance of Wakefulness Test (MWT) was conducted 4 times during the continuous IV infusion to assess effects on wakefulness in soporific conditions at 2, 4, 6 and 8 hours from start of infusion. Three cohorts of patients were enrolled (n=14 total).
Pharmacokinetics: Concentrations of Compound A in plasma, and CSF, and pharmacokinetics parameters.
On average, the time to reach the plateau appeared to be approximately 4 hours after the start of infusion. […] After switching off the IV infusion, Compound A plasma concentrations declined rapidly and in a biphasic manner with a mean terminal disposition phase t1/2z ranging approximately from 3.5 to 4.1 hours across the doses.

[3] = Cmpd A 5 mg, Mean, Cohort 5, 6, 7
[4] = Cmpd A 5 mg, Median, Cohort 5, 6, 7
[5] = Cmpd A 11.2 mg, Mean, Cohort 5, 6, 7
[6] = Cmpd A 11.2 mg, Median, Cohort 5, 6, 7
[7] = Cmpd A 44.8 mg, Mean, Cohort 5, 6, 7
[8] = Cmpd A 44.8 mg, Median, Cohort 5, 6, 7
[9] = intravenous, 5 mg, Cmpd A 5 mg, Geo Mean, Cohort 5, 6, 7
[10] = intravenous, 5 mg, Cmpd A 5 mg, Mean, Cohort 5, 6, 7
[11] = intravenous, 5 mg, Cmpd A 5 mg, Median, Cohort 5, 6, 7
[12] = intravenous, 11.2 mg, Cmpd A 11.2 mg, Geo Mean, Cohort 5, 6, 7
[13] = intravenous, 11.2 mg, Cmpd A 11.2 mg, Mean, Cohort 5, 6, 7
[14] = intravenous, 11.2 mg, Cmpd A 11.2 mg, Median, Cohort 5, 6, 7
[15] = intravenous, 44.8 mg, Cmpd A 44.8 mg, Geo Mean, Cohort 5, 6, 7
[16] = intravenous, 44.8 mg, Cmpd A 44.8 mg, Mean, Cohort 5, 6, 7
[17] = intravenous, 44.8 mg, Cmpd A 44.8 mg, Median, Cohort 5, 6, 7
[18] = iv, 5 mg, NT1, single 9 h IV infusion, read-out: Plasma concentration, Mean
[19] = iv, 5 mg, NT1, single 9 h IV infusion, read-out: Plasma concentration, Median
[20] = iv, 11.2 mg, NT1, single 9 h IV infusion, read-out: Plasma concentration, Mean
[21] = iv, 11.2 mg, NT1, single 9 h IV infusion, read-out: Plasma concentration, Median
[22] = iv, 44.8 mg, NT1, single 9 h IV infusion, read-out: Plasma concentration, Mean
[23] = iv, 44.8 mg, NT1, single 9 h IV infusion, read-out: Plasma concentration, Median

**Q.** What does the source list for COC(=O)N1CCC[C@H](NS(C)(=O)=O)[C@@H]1CO[C@H]1CC[C@@H](c2ccccc2)CC1 [Compound A, methyl (2R,3S)-3-((methylsulfonyl)amino)-2-(((cis-4-phenylcyclohexyl)oxy)methyl)piperidine-1-carboxylate]?
**A.** BP and pulse rate increases vs Compound A concentration ([1]; human, in vivo): Trend for the observed BP and pulse rate increases in healthy subjects and Compound A concentration was observed; commonly observed AEs ([1]; human, in vivo, iv): BP increased and heart rate increased; adverse events (AEs), severity and seriousness ([1]; single dose, 9 hour IV infusion, Compound A groups (healthy subjects and NT1 patients)): all of the AEs were mild (except 1 moderate influenza) and no serious AEs were observed; AUCinf D [2, 3]: 17.88 ng·h/mL/mg; CL [2, 3]: 57.05 L/h; Cmax D [2, 3]: 2.050 ng/mL/mg; t½z [2, 3]: 3.465 h; AUCinf D [2, 4]: 18.20 ng·h/mL/mg; Cmax D [2, 4]: 2.000 ng/mL/mg; Vz [2, 4]: 284.5 L; t½z [2, 4]: 3.380 h; AUCinf D [2, 5]: 17.95 ng·h/mL/mg; Cmax D [2, 5]: 1.963 ng/mL/mg; Vss [2, 5]: 114.1 L; Vz [2, 5]: 316.8 L; t½z [2, 5]: 3.923 h; AUCinf D [2, 6]: 18.05 ng·h/mL/mg; Cmax D [2, 6]: 1.990 ng/mL/mg; Vss [2, 6]: 113.5 L; Vz [2, 6]: 336.5 L; t½z [2, 6]: 4.020 h; AUCinf D [2, 7]: 21.45 ng·h/mL/mg; Cmax D [2, 7]: 2.195 ng/mL/mg; t½z [2, 7]: 4.130 h; AUCinf D [2, 8]: 20.80 ng·h/mL/mg; Cmax D [2, 8]: 2.170 ng/mL/mg; t½z [2, 8]: 3.885 h; systemic exposures and clearance in NT1 patients vs healthy adults ([2]; IV administration): consistent with those observed in healthy adults; also recorded: comparable with those observed in healthy adults; dose proportionality of mean plasma systemic exposure ([2]; doses of 5 to 44.8 mg, NT1 patients): increased approximately dose proportionally; AUC(0-inf) [2, 9]: 88.5 ng·h/mL; AUC(0-t) [2, 9]: 86.2 ng·h/mL; Cmax [2, 9]: 10.1 ng/mL; AUC [2, 9]: 88 ng·h/mL; concentration at 9 h ([2]; intravenous, 5 mg, Cmpd A 5 mg, Geo Mean, Cohort 5, 6, 7, read-out: Ceoi): 9.65 ng/mL; AUC(0-inf) [2, 10]: 89.3 ng·h/mL; AUC(0-t) [2, 10]: 87.2 ng·h/mL; Cmax [2, 10]: 10.2 ng/mL; Tmax [2, 10]: 8 h; AUC [2, 10]: 88.8 ng·h/mL; concentration at 9 h ([2]; intravenous, 5 mg, Cmpd A 5 mg, Mean, Cohort 5, 6, 7, read-out: Ceoi): 9.71 ng/mL; Vd ([2]; intravenous, 5 mg, Cmpd A 5 mg, Mean, Cohort 5, 6, 7, read-out: Vss): 112 L; Vd ([2]; intravenous, 5 mg, Cmpd A 5 mg, Mean, Cohort 5, 6, 7, read-out: Vz): 282 L; AUC(0-inf) [2, 11]: 91.1 ng·h/mL; AUC(0-t) [2, 11]: 89.2 ng·h/mL; Cmax [2, 11]: 9.99 ng/mL; Tmax [2, 11]: 9 h; AUC [2, 11]: 90.8 ng·h/mL; clearance ([2]; intravenous, 5 mg, Cmpd A 5 mg, Median, Cohort 5, 6, 7, read-out: CL (converted)): 915 mL/min; concentration at 9 h ([2]; intravenous, 5 mg, Cmpd A 5 mg, Median, Cohort 5, 6, 7, read-out: Ceoi): 9.99 ng/mL; Vd ([2]; intravenous, 5 mg, Cmpd A 5 mg, Median, Cohort 5, 6, 7, read-out: Vss): 110 L; AUC(0-inf) [2, 12]: 201 ng·h/mL; AUC(0-t) [2, 12]: 199 ng·h/mL; Cmax [2, 12]: 21.9 ng/mL; AUC [2, 12]: 199 ng·h/mL; concentration at 9 h ([2]; intravenous, 11.2 mg, Cmpd A 11.2 mg, Geo Mean, Cohort 5, 6, 7, read-out: Ceoi): 21.2 ng/mL; AUC(0-inf) [2, 13]: 201 ng·h/mL; AUC(0-t) [2, 13]: 199 ng·h/mL; Cmax [2, 13]: 22 ng/mL; Tmax [2, 13]: 7.75 h; AUC [2, 13]: 199 ng·h/mL; clearance ([2]; intravenous, 11.2 mg, Cmpd A 11.2 mg, Mean, Cohort 5, 6, 7, read-out: CL (converted)): 932 mL/min; concentration at 9 h ([2]; intravenous, 11.2 mg, Cmpd A 11.2 mg, Mean, Cohort 5, 6, 7, read-out: Ceoi): 21.2 ng/mL; AUC(0-inf) [2, 14]: 202 ng·h/mL; AUC(0-t) [2, 14]: 200 ng·h/mL; Cmax [2, 14]: 22.3 ng/mL; Tmax [2, 14]: 9 h; AUC [2, 14]: 200 ng·h/mL; clearance ([2]; intravenous, 11.2 mg, Cmpd A 11.2 mg, Median, Cohort 5, 6, 7, read-out: CL (converted)): 924 mL/min; concentration at 9 h ([2]; intravenous, 11.2 mg, Cmpd A 11.2 mg, Median, Cohort 5, 6, 7, read-out: Ceoi): 21.9 ng/mL; AUC(0-inf) [2, 15]: 925 ng·h/mL; AUC(0-t) [2, 15]: 911 ng·h/mL; Cmax [2, 15]: 96.5 ng/mL; AUC [2, 15]: 911 ng·h/mL; concentration at 9 h ([2]; intravenous, 44.8 mg, Cmpd A 44.8 mg, Geo Mean, Cohort 5, 6, 7, read-out: Ceoi): 94 ng/mL; AUC(0-inf) [2, 16]: 959 ng·h/mL; AUC(0-t) [2, 16]: 941 ng·h/mL; Cmax [2, 16]: 98.3 ng/mL; Tmax [2, 16]: 6.5 h; AUC [2, 16]: 941 ng·h/mL; clearance ([2]; intravenous, 44.8 mg, Cmpd A 44.8 mg, Mean, Cohort 5, 6, 7, read-out: CL (converted)): 836 mL/min; concentration at 9 h ([2]; intravenous, 44.8 mg, Cmpd A 44.8 mg, Mean, Cohort 5, 6, 7, read-out: Ceoi): 96.2 ng/mL; Vd ([2]; intravenous, 44.8 mg, Cmpd A 44.8 mg, Mean, Cohort 5, 6, 7, read-out: Vss): 117 L; Vd ([2]; intravenous, 44.8 mg, Cmpd A 44.8 mg, Mean, Cohort 5, 6, 7, read-out: Vz): 281 L; AUC(0-inf) [2, 17]: 930 ng·h/mL; AUC(0-t) [2, 17]: 919 ng·h/mL; Cmax [2, 17]: 97 ng/mL; Tmax [2, 17]: 6.5 h; AUC [2, 17]: 919 ng·h/mL; clearance ([2]; intravenous, 44.8 mg, Cmpd A 44.8 mg, Median, Cohort 5, 6, 7, read-out: CL (converted)): 809 mL/min; concentration at 9 h ([2]; intravenous, 44.8 mg, Cmpd A 44.8 mg, Median, Cohort 5, 6, 7, read-out: Ceoi): 95.2 ng/mL; Vd ([2]; intravenous, 44.8 mg, Cmpd A 44.8 mg, Median, Cohort 5, 6, 7, read-out: Vss): 116 L; Vd ([2]; intravenous, 44.8 mg, Cmpd A 44.8 mg, Median, Cohort 5, 6, 7, read-out: Vz): 282 L; concentration at 1 h [2, 18]: 6.38 ng/mL; concentration at 1 h [2, 19]: 6.25 ng/mL; concentration at 2 h [2, 18]: 8.75 ng/mL; concentration at 2 h [2, 19]: 9.15 ng/mL; concentration at 4 h [2, 18]: 10.1 ng/mL; concentration at 4 h [2, 19]: 9.62 ng/mL; concentration at 6 h [2, 18]: 7.91 ng/mL; concentration at 6 h [2, 19]: 7.97 ng/mL; concentration at 9 h ([2]; iv, 5 mg, 9 hr, NT1, single 9 h IV infusion, read-out: Plasma concentration, Mean): 9.64 ng/mL; concentration at 9 h ([2]; iv, 5 mg, 9 hr, NT1, single 9 h IV infusion, read-out: Plasma concentration, Median): 9.96 ng/mL; concentration at 1 h [2, 20]: 14.4 ng/mL; concentration at 1 h [2, 21]: 14.3 ng/mL; concentration at 2 h [2, 20]: 17.3 ng/mL; concentration at 2 h [2, 21]: 17.1 ng/mL; concentration at 4 h [2, 20]: 21.5 ng/mL; concentration at 4 h [2, 21]: 21.5 ng/mL; concentration at 6 h [2, 20]: 19.5 ng/mL; concentration at 6 h [2, 21]: 19.8 ng/mL; concentration at 9 h ([2]; iv, 11.2 mg, 9 hr, NT1, single 9 h IV infusion, read-out: Plasma concentration, Mean): 21.2 ng/mL; concentration at 9 h ([2]; iv, 11.2 mg, 9 hr, NT1, single 9 h IV infusion, read-out: Plasma concentration, Median): 21.9 ng/mL; concentration at 1 h [2, 22]: 61.5 ng/mL; concentration at 1 h [2, 23]: 56.5 ng/mL; concentration at 2 h [2, 22]: 74.1 ng/mL; concentration at 2 h [2, 23]: 76.3 ng/mL; concentration at 4 h [2, 22]: 96 ng/mL; concentration at 4 h [2, 23]: 92.9 ng/mL; concentration at 6 h [2, 22]: 90 ng/mL; concentration at 6 h [2, 23]: 88.3 ng/mL; concentration at 9 h ([2]; iv, 44.8 mg, 9 hr, NT1, single 9 h IV infusion, read-out: Plasma concentration, Mean): 96.2 ng/mL; concentration at 9 h ([2]; iv, 44.8 mg, 9 hr, NT1, single 9 h IV infusion, read-out: Plasma concentration, Median): 95.2 ng/mL; clearance ([2]; iv, IV administration, NT1 patients, read-out: mean estimates of plasma clearance): 833 to 950 mL/min; time to reach the plateau of plasma concentration after the start of infusion ([2]; single 9 h IV infusion, 5 to 44.8 mg, NT1 patients): approximately 4 hours
